Columns and labels:
Format in all cases: in vivo
[1] = Experiment 6 sensory evaluation of cyclic dipeptides, “top sharp saltiness”
Experimental: (§1) An aqueous solution in which the concentration of each of the cyclic dipeptides shown in the table described below is set to be the same as its concentration in the heat-treated coriander prepared in 1.1. described above, as estimated from the ratio of the peak area of the cyclic dipeptides to the peak area of the internal standard (47 μg/g of L-lysine-^13C6 monohydrochloride) (hereinafter referred to as “heat-treated coriander equivalent aqueous solution”) was prepared. An aqueous solution in which the concentration of each of the cyclic dipeptides is set to be the same as its concentration in the heat-treated paprika of Example 203 prepared in 2.1 described above (hereinafter referred to as “heat-treated paprika equivalent aqueous solution”) was also prepared. Cyclic dipeptides prepared by the applicant were used in this experiment. As a cyclic dipeptide comprising Leu/Ile, a mixture comprising equal parts of cyclic dipeptide comprising Leu and cyclic dipeptide comprising Ile was used.
(§2) Common and reduced-sodium curry rouxes were prepared according to the procedures described in (1) and (2) of 1.3. described above.
(§3) Two dispersions of 44 g of the aforesaid reduced-sodium curry roux dispersed in 300 g of hot water were prepared. To one of them was added the heat-treated coriander equivalent solution or heat-treated paprika equivalent aqueous solution of the individual cyclic dipeptides shown in the table described below so as to be in the final concentration of 0.5% (w/w) or 1.0% (w/w), respectively.
(§4) Forty-four grams of the aforesaid common curry roux was dispersed in 300 g of hot water.
(§5) The dispersion of reduced-sodium curry roux dispersed in hot water and the dispersion of common curry roux dispersed in hot water were used as comparative controls, and the strength of the flavor was evaluated by three evaluators on the basis of the following evaluation criteria from the viewpoint of “top sharp saltiness”, “middle fullness (enhanced thickness) and “boosting of last flavor (aftertaste).”
(§6) The average of the evaluated scores was defined as “F” when it was 1.0 or lower, “C” when it was 1.1 or higher and 1.9 or lower, “B” when it was 2.0 or higher and 2.5 or lower, “A” when it was 2.6 or higher and 2.9 or lower, and “AA” when it was 3.0 or higher.
(§7) In the table described below, “ID” refers to the compound ID described above. The items of “coriander 0.5%” and “coriander 1.0%” refer to the addition of the aforesaid heat-treated coriander equivalent aqueous solution of cyclic dipeptide so that the final concentrations may be 0.5% (w/w) and 1.0% (w/w), respectively. The items of “paprika 0.5%” and “paprika 1.0%” refer to the addition of the aforesaid heat-treated paprika equivalent aqueous solution of cyclic dipeptide so that the final concentration may be 0.5% (w/w) and 1.0% (w/w), respectively.

[2] = Experiment 6 sensory evaluation of cyclic dipeptides, “middle fullness (enhanced thickness)”
Experimental: as §1, §2, §3, §4, §5, §6, §7

[3] = Experiment 6 sensory evaluation of cyclic dipeptides, “boosting of last flavor (aftertaste)”
Experimental: as §1, §2, §3, §4, §5, §6, §7

[4] = Additive amount coriander 0.5% (heat-treated coriander equivalent aqueous solution, final 0.5% (w/w)), reduced-sodium curry roux
[5] = Additive amount coriander 0.5%, reduced-sodium curry roux
[6] = heat-treated coriander equivalent aqueous solution of cyclic dipeptide, final 1.0% (w/w) in reduced-sodium curry roux dispersion
[7] = heat-treated coriander equivalent aqueous solution of cyclic dipeptide, final 1.0% (w/w) in reduced-sodium curry roux dispersion, 3 evaluators
[8] = Additive amount paprika 0.5% (heat-treated paprika equivalent aqueous solution, final 0.5% (w/w)), reduced-sodium curry roux
[9] = Additive amount paprika 0.5%, reduced-sodium curry roux
[10] = heat-treated paprika equivalent aqueous solution of cyclic dipeptide, final 1.0% (w/w) in reduced-sodium curry roux dispersion
[11] = heat-treated paprika equivalent aqueous solution of cyclic dipeptide, final 1.0% (w/w) in reduced-sodium curry roux dispersion, 3 evaluators

Row | Substance | Top sharp saltiness Average [1, 4] | Top sharp saltiness Evaluation [1, 5] | Top sharp saltiness Evaluation [1, 6] | Top sharp saltiness Average [1, 7] | Middle fullness Average [2, 5] | Middle fullness Evaluation [2, 5] | Middle fullness Evaluation [2, 6] | Middle fullness Average [2, 7] | Top sharp saltiness Average [1, 8] | Top sharp saltiness Evaluation [1, 9] | Top sharp saltiness Evaluation [1, 10] | Top sharp saltiness Average [1, 11] | Middle fullness Average [2, 9] | Middle fullness Evaluation [2, 9] | Middle fullness Evaluation [2, 10] | Middle fullness Average [2, 11] | Bosting of last flavor Average [3, 9] | Bosting of last flavor Evaluation [3, 9] | Bosting of last flavor Evaluation [3, 10] | Bosting of last flavor Average [3, 11] | further results
1 | cyclic (Glu-Leu/Ile) [Coriander ID 47] | 2.3 points | B (“B” when it was 2.0 or higher and 2.5 or lower) | B (“B” when it was 2.0 or higher and 2.5 or lower) | 2.2 points | 2.8 points | A (“A” when it was 2.6 or higher and 2.9 or lower) | B (“B” when it was 2.0 or higher and 2.5 or lower) | 2.3 points |  |  |  |  |  |  |  |  |  |  |  |  | Bosting of last flavor Average [3, 5]: 3.0 points; Bosting of last flavor Evaluation [3, 5]: AA (“AA” when it was 3.0 or higher); Bosting of last flavor Evaluation [3, 6]: A (“A” when it was 2.6 or higher and 2.9 or lower); Bosting of last flavor Average [3, 7]: 2.7 points
2 | cyclic (Pro-Glu) [Coriander ID 48] | 1.7 points | C (“C” when it was 1.1 or higher and 1.9 or lower) | B (“B” when it was 2.0 or higher and 2.5 or lower) | 2.0 points | 1.7 points | C (“C” when it was 1.1 or higher and 1.9 or lower) | B (“B” when it was 2.0 or higher and 2.5 or lower) | 2.3 points |  |  |  |  |  |  |  |  |  |  |  |  | Bosting of last flavor Average [3, 5]: 1.8 points; Bosting of last flavor Evaluation [3, 5]: C (“C” when it was 1.1 or higher and 1.9 or lower); Bosting of last flavor Evaluation [3, 6]: B (“B” when it was 2.0 or higher and 2.5 or lower); Bosting of last flavor Average [3, 7]: 2.3 points
3 | cyclic (Thr-Leu/Ile) [Coriander ID 3] |  |  |  |  |  |  |  |  | 2.0 points | B (“B” when it was 2.0 or higher and 2.5 or lower) | C (“C” when it was 1.1 or higher and 1.9 or lower) | 1.7 points | 2.5 points | B (“B” when it was 2.0 or higher and 2.5 or lower) | B (“B” when it was 2.0 or higher and 2.5 or lower) | 2.2 points | 3.0 points | AA (“AA” when it was 3.0 or higher) | C (“C” when it was 1.1 or higher and 1.9 or lower) | 1.7 points | 
4 | cyclic (Glu-Tyr) [Coriander ID 19] |  |  |  |  |  |  |  |  | 2.3 points | B (“B” when it was 2.0 or higher and 2.5 or lower) | A (“A” when it was 2.6 or higher and 2.9 or lower) | 2.8 points | 2.7 points | A (“A” when it was 2.6 or higher and 2.9 or lower) | AA (“AA” when it was 3.0 or higher) | 3.0 points | 2.5 points | B (“B” when it was 2.0 or higher and 2.5 or lower) | A (“A” when it was 2.6 or higher and 2.9 or lower) | 2.8 points | 
5 | cyclic (Glu-Arg) [Coriander ID 8] |  |  |  |  |  |  |  |  | 1.8 points | C (“C” when it was 1.1 or higher and 1.9 or lower) | B (“B” when it was 2.0 or higher and 2.5 or lower) | 2.2 points | 2.2 points | B (“B” when it was 2.0 or higher and 2.5 or lower) | B (“B” when it was 2.0 or higher and 2.5 or lower) | 2.5 points | 2.7 points | A (“A” when it was 2.6 or higher and 2.9 or lower) | B (“B” when it was 2.0 or higher and 2.5 or lower) | 2.3 points | 
